According to publication PMC11311697, “Exploring the Role of Neuropeptide PACAP in Cytoskeletal Function Using Spectroscopic Methods” (International Journal of Molecular Sciences, 2024):
Ends that are not written are not given here.

What was measured:
[1] = tested on: PAC1 receptor; conditions: ref [7],[8]; cited from earlier work
Description: PACAP can bind to VPAC1 (VIP receptor type 1) and VPAC2 (VIP receptor […]) receptors, which also bind VIP, due to their structural similarity. […] The high specificity of PAC1 receptors for PACAP makes them ideal for studying PACAP–receptor interactions. PAC1 receptors, being GS protein-coupled receptors (GPCRs ...

[2] = tested on: dihydropyrimidinase like 2 (DPYL2); conditions: ischemic brain tissue; ref [43],[44]; cited from earlier work
Description: (§1) PACAP synergizes with multiple factors to promote neurite growth in different cell lines. It works with nerve growth factor (NGF) and VIP to stimulate neuritogenesis, increasing neurite length and branching, similar to brain-derived neurotrophic factor (BDNF). […] In traumatic central nervous system (CNS) injuries, PACAP has cytoprotective and antiapoptotic effects. It increases dihydropyrimidinase li ...

[3] = tested on: neurite growth in different cell lines; conditions: ref [40],[41],[42]; cited from earlier work
Description: as §1

[4] = tested on: traumatic brain injury (TBI); conditions: intracerebroventricular (icv); brain regions such as corticospinal tract and medial longitudinal fasciculus; ref [45],[46]; cited from earlier work
Description: as §1

[5] = tested on: streptozotocin-induced diabetes model; parameters: method as in PMID 34639032; conditions: ref [76]; cited from earlier work
[6] = tested on: adenylate cyclase, rat pituitary cells; conditions: versus VIP, ref [2]; cited from earlier work
Description: Pituitary adenylate cyclase-activating polypeptide (PACAP) was first isolated from the sheep hypothalamus in 1989 [1, 2]. It belongs to the vasoactive intestinal peptide (VIP)/glucagon/secretin peptide family, sharing 68% structural homology with VIP, but stimulating adenylate cyclase activity 1000 times more effectively in rat pituitary cells. PACAP plays crucial roles in the nervous and endocrine systems, acting as a hormone, neurotransmitter, vasodilator, and neuromodulator, and potentially having neurotrophic or neuroprotective functions. PACAP exists in two biologically ...

[7] = tested on: astrocyte; conditions: by increasing cAMP levels; ref [57]; cited from earlier work
Description: The polymerization of G-actin into filamentous actin (F-actin) is essential for maintaining cellular structural integrity and supporting dynamic processes. Actin filaments, which form the cell’s cytoskeleton, provide mechanical strength and stability. The F-actin network supports various cellular functions, including cell migration, division, and intracellular transport, by continuously polymerizing and depolymerizing. The dynamic nature of F-actin allows cells to adapt to environmental changes and respond to signals, interacting with regulatory proteins to influence membrane protr ...

[8] = tested on: caspase-3; conditions: ref [1],[79]; cited from earlier work
Description: (§2) As mentioned above, PACAP plays a significant role in mitigating neuronal damage and promoting cell survival. […] The misfolding and aggregation of proteins such as Tau are hallmarks of neurodegenerative diseases like Alzheimer’s.

[9] = tested on: Tau; conditions: ref [1],[79]; cited from earlier work
Description: as §2

[10] = target: G-actin (Oryctolagus cuniculus, UniProt P68135); experiment: Steady-state anisotropy of Alexa488NHS-labeled G-actin with PACAP; format: binding, rabbit; conditions: 0.2 µM A488NHS-labeled G-actin; PACAP 0 to 5 µM; 50 mM KCl, 1 mM MgCl2, 4 μM LatA, 1 mM EGTA, G-buffer pH 7.8; 20 °C; ex 488 nm; mean ± SD, at least three independent experiments; read-out: dissociation equilibrium constant (KD), in Figure 3
Protocol: Actin was prepared from acetone-dried muscle powder from rabbit skeletal muscle according to the method of Spudich and Watt modified by Mossakowska et al.. Shortly, the acetone-dried powder was extracted in G-buffer (4 mM TRIS (Sigma-Aldrich, Saint Louis, MO, USA), 0.1 mM CaCl2 (Sigma-Aldrich, Saint Louis, MO, USA), 0.2 mM ATP (VWR International LLC, Radnor, PA, USA), 0.5 mM DTT (VWR International LLC, Radnor, PA, USA), pH 7.8), mixed on ice with a magnetic stirrer (30 min, 80 rpm). The mixture was filtered through quadruple-layered gauze, supplemented with additional G-buffer, mixed further (40 min, 80 rpm), filtered again, and centrifuged (30,000 rpm, 4 °C, 30 min). […] After clarification centrifugation (80,000 rpm, 30 min, 4 °C), the supernatant was removed and actin absorbance was measured using a spectrophotometer to determine its concentration. […]
For our investigation, we utilized A488NHS green-fluorescent dye, which remains stable between pH 4 and 10, with peak emission when excited at 488 nm. […] In vitro anisotropy and fluorescence emission measurements involved 0.2 µM Alexa488NHS-Mg^2+-ATP-G-actin (Alexa488NHS labeled G-actin) with varying PACAP concentrations. […] The cuvette (Hellma® fluorescence, ultra Micro, Suprasil® quartz, spectral range 200–2500 nm) had optical path lengths of ex = 10 mm/em = 2 mm. […]

[11] = tested on: Ca^2+-G actin and Ca^2+-F actin; conditions: DSC; ref [81],[82]; cited from earlier work
Description: In previous investigations, we employed differential scanning calorimetry (DSC) to explore the impact of various PACAP fragments on the thermal stability of Ca^2+-G actin and Ca^2+-F actin.

[12] = tested on: Ca^2+-F-actin; parameters: method as in doi:10.1007/s10973-024-13286-2, doi:10.1007/s10973-024-13289-z; conditions: DSC; ref [81],[82]; cited from earlier work

For vasoactive intestinal peptide [VIP], the “binding to PAC1 receptor (in words)” value [1] is given as “low affinity”.

For “Pituitary adenylate cyclase-activating polypeptide [PACAP]”, the “effect on DPYL2 protein levels (in words)” value [2] is listed as “increases dihydropyrimidinase like 2 (DPYL2) protein levels in ischemic brain tissue”, the “effect on axon growth / neurite growth (in words)” value [3] is listed as “enhances axon length and cell body size but does not affect dendrite length” and the “effect on axonal swellings and amyloid plaque accumulation (in words)” value [4] is listed as “reduces axonal swellings and amyloid plaque accumulation”. For the same compound, the “effect on morphological signs of nerve injury and hyperalgesia (in words)” value [5] was “reduced morphological signs of nerve injury (axon–myelin separation, elevated mitochondrial number in myelinated axons, unmyelinated fiber atrophy, and basement membrane thickening of endoneurial vessels) while also attenuating pressure and touch hyperalgesia”, the “stimulation of adenylate cyclase activity relative to VIP” value [6] was 1000 times and the “effect on actomyosin stress fibers (in words)” value [7] was “promotes actomyosin stress fiber depolymerization”. The “effect on caspase-3 activity (in words)” value [8] was “inhibits caspase-3 activity” and the “effect on Tau phosphorylation (in words)” value [9] was “enhances Tau phosphorylation and prevents its dephosphorylation”.

Work on `CSCC[C@H](NC(=O)[C@H](CCC(N)=O)NC(=O)[C@H](CCCCN)NC(=O)[C@H](CCCNC(=N)N)NC(=O)[C@H](Cc1ccc(O)cc1)NC(=O)[C@H](CCCNC(=N)N)NC(=O)[C@H](CO)NC(=O)[C@H](Cc1ccc(O)cc1)NC(=O)[C@H](CO)NC(=O)[C@H](CC(=O)O)NC(=O)[C@@H](NC(=O)[C@@H](N)Cc1ccccc1)[C@@H](C)O)C(=O)N[C@@H](C)C(=O)N[C@H](C(=O)N[C@@H](CCCCN)C(=O)N[C@@H](CCCCN)C(=O)N[C@@H](Cc1ccc(O)cc1)C(=O)N[C@@H](CC(C)C)C(=O)N[C@@H](C)C(=O)N[C@@H](C)C(=O)N[C@H](C(=O)N[C@@H](CC(C)C)C(=O)NCC(=O)N[C@@H](CCCCN)C(=O)N[C@@H](CCCNC(=N)N)C(=O)N[C@@H](Cc1ccc(O)cc1)C(=O)N[C@@H](CCCCN)C(=O)N[C@@H](CCC(N)=O)C(=O)N[C@@H](CCCNC(=N)N)C(=O)N[C@H](C(=O)N[C@@H](CCCCN)C(=O)N[C@@H](CC(N)=O)C(=O)N[C@@H](CCCCN)C(N)=O)C(C)C)C(C)C)C(C)C` [PACAP6-38] yielded a Kd [10] of 150.46 ± 0.03 nM.

Work on `CC[C@H](C)[C@H](NC(=O)CNC(=O)[C@H](CC(=O)O)NC(=O)[C@H](CO)NC(=O)[C@@H](N)Cc1cnc[nH]1)C(=O)N[C@@H](Cc1ccccc1)C(=O)N[C@H](C(=O)N[C@@H](CC(=O)O)C(=O)N[C@@H](CO)C(=O)N[C@@H](Cc1ccc(O)cc1)C(=O)N[C@@H](CO)C(=O)N[C@@H](CCCNC(=N)N)C(=O)N[C@@H](Cc1ccc(O)cc1)C(=O)N[C@@H](CCCNC(=N)N)C(=O)N[C@@H](CCCCN)C(=O)N[C@@H](CCC(N)=O)C(=O)N[C@@H](CCSC)C(=O)N[C@@H](C)C(=O)N[C@H](C(=O)N[C@@H](CCCCN)C(=O)N[C@@H](CCCCN)C(=O)N[C@@H](Cc1ccc(O)cc1)C(=O)N[C@@H](CC(C)C)C(=O)N[C@@H](C)C(=O)N[C@@H](C)C(=O)N[C@H](C(=O)N[C@@H](CC(C)C)C(=O)NCC(=O)N[C@@H](CCCCN)C(=O)N[C@@H](CCCNC(=N)N)C(=O)N[C@@H](Cc1ccc(O)cc1)C(=O)N[C@@H](CCCCN)C(=O)N[C@@H](CCC(N)=O)C(=O)N[C@@H](CCCNC(=N)N)C(=O)N[C@H](C(=O)N[C@@H](CCCCN)C(=O)N[C@@H](CC(N)=O)C(=O)N[C@@H](CCCCN)C(N)=O)C(C)C)C(C)C)C(C)C)[C@@H](C)O` [PACAP38, Pituitary adenylate cyclase-activating polypeptide 38] yielded a Kd [10] of 97.22 ± 0.01 nM.

For “PACAP6-27: PACAP fragment examined by DSC in earlier studies (FTDSYSRYRKQMAVKKYLAAVL; ends and bridges not checked; UniProt P18509 137-158, looked up, fragment)”, the “effect on thermal properties of actin (in words)” value [11] is listed as “altered the thermal stability of actin, albeit to a lesser degree” and the “denaturation temperature of Ca2+-F-actin compared with control (in words)” value [12] is listed as “did not show significant changes”.
